Source: patent publication US10807959B2, “WDR5-MLL1 inhibitors and modulators” (Vanderbilt University, priority 2018, dated 2020)

Biological target: T1, WDR5 (Homo sapiens (Human), UniProt P61964)
Test: TR-FRET binding assay, displacement of 10mer-Thr-FAM probe from His-tagged WDR5
Settings: not given
Method: The LanthaScreenTM Elite Tb-anti-HIS Antibody from ThermoFisher Scientific was used for this purpose. […] The ratio of the 520 and 495 signals are then utilized to generate a dose-response curve to calculate an IC50 value. […] WDR[…] tag protein is used at 2 nM.

Ki	Compound
0.0213 nM	Cc1nc(F)ccc1-c1cc(CNC2=NCCN2)cc(C(=O)NCc2ccc(Cl)c(Cl)c2)c1 [Example B64]
0.634 nM	COc1cc(CNC(=O)c2cc(CNC3=NCCN3)cc(-c3ccnc(C)c3)c2)cc(OC)c1 [Example B72]
0.0312 nM	Cc1cc(-c2cc(CNC3=NCCN3)cc(C(=O)NCc3ccc(Cl)c(Cl)c3)c2)ccn1 [Example B74]
0.033 nM	Cc1cc(-c2cc(CNC3=NCCN3)cc(C(=O)NCc3cc(Cl)cc(Cl)c3)c2)ccn1 [Example B81]
0.118 nM	Cc1cc(-c2cc(CNC3=NCCN3)cc(C(=O)NCc3ccc(Cl)c(C)c3)c2)ccn1 [Example B84]
0.198 nM	Cc1ccncc1-c1cc(CNC2=NCCN2)cc(C(=O)NCc2cc(Cl)cc(Cl)c2)c1 [Example B87]
0.115 nM	Cc1cc(C)cc(CNC(=O)c2cc(CNC3=NCCN3)cc(-c3ccnc(C)c3)c2)c1 [Example B90]
0.759 nM	Cc1ccncc1-c1cc(CNC2=NCCN2)cc(C(=O)NC(C2CC2)C2CC2)c1 [Example B93]
0.0875 nM	Cc1cc(-c2cc(CNC3=NCCN3)cc(C(=O)NCc3ccc(Cl)c(Cl)c3)c2)cnc1F [Example B99]
0.0965 nM	COc1ccc(CNC(=O)c2cc(CNC3=NCCN3)cc(-c3cc(C)cnc3F)c2)cc1OC [Example B107]
0.0385 nM	COc1cc(CNC(=O)c2cc(CNC3=NCCN3)cc(-c3cc(C)cnc3F)c2)cc(OC)c1 [Example B109]
0.0875 nM	Cc1cc(-c2cc(CNC3=NCCN3)cc(C(=O)NCc3cc(Cl)ccn3)c2)cc(C)n1 [Example B111]
0.48 nM	COc1ccnc(CNC(=O)c2cc(CNC3=NCCN3)cc(-c3cc(OC)ccc3OC)c2)c1 [Example B115]
0.106 nM	COc1ccnc(CNC(=O)c2cc(CNC3=NCCN3)cc(-c3cc(Cl)ccc3OC)c2)c1 [Example B116]
0.311 nM	O=C(NCc1ccc(Cl)c(Cl)c1)c1cc(CNC2=NCCN2)cc(-c2ccc(F)nc2F)n1 [Example C2]
0.132 nM	Cc1cc(F)ccc1-c1cc(CNC2=NCCC2)cc(C(=O)NCc2ccc(Cl)c(Cl)c2)n1 [Example C22]

Biological target: T1, WDR5
Test: Fluorescence polarization anisotropy (FPA) competition assay, displacement of FITC-MLL or 10mer-Thr-FAM peptide
Type: binding
Settings: Inhibition of WDR5 by FPA assay
Excerpt: The assay is run in 384-well format and is read on a BioTek Cytation. […] Replicate values are fit to a 4-parameter fit in XLFit to generate a single IC50 value for each compound that is then converted to a Ki value. Experiments are repeated to generate a 2nd, independent Ki value; values from the two experiments are averaged to produce the reported Ki value for the compound.

Ki	Compound
6 nM	O=C(NC(C1CC1)C1CC1)c1cc(CNC2=NCCN2)cc(-c2ccc(F)cc2Cl)c1 [Example 2, 2′-Chloro-N-(dicyclopropylmethyl)-5-(((4,5-dihydro-1H-imidazol-2-yl)amino)methyl)-4′-fluoro-[1,1′-biphenyl]-3-carboxamide]
2.7 nM	COc1cc(CNC(=O)c2cc(CNC3=NCCN3)cc(-c3ccc(F)cc3Cl)c2)cc(OC)c1 [Example 3, 2′-chloro-5-(((4,5-dihydro-1H-imidazol-2-yl)amino)methyl)-N-(3,5-dimethoxybenzyl)-4′-fluoro-[1,1′-biphenyl]-3-carboxamide]
33.7 nM	O=C(NCc1cc(Cl)cc(Cl)c1)c1cc(Cl)cc(Cn2ccnc2)c1 [Example 110, 3-((1H-Imidazol-1-yl)methyl)-5-chloro-N-(3,5-dichlorobenzyl)benzamide]
141 nM	COc1cc(Cn2ccnc2)cc(C(=O)NCc2ccc(Cl)c(C)c2)c1 [Example 113, 3-((1H-Imidazol-1-yl)methyl)-N-(4-chloro-3-methylbenzyl)-5-methoxybenzamide]
3.5 nM	Cc1cc(CNC(=O)c2cc(Cn3ccnc3)cc(OC3CCCC3)c2)ccc1Cl [Example 115, 3-((1H-Imidazol-1-yl)methyl)-N-(4-chloro-3-methylbenzyl)-5-(cyclopentyloxy)benzamide]
5.1 nM	COc1cc(CNC(=O)c2cc(Cn3ccnc3)cc(Oc3ccccc3)c2)cc(OC)c1 [Example 120, 3-((1H-imidazol-1-yl)methyl)-N-(3,5-dimethoxybenzyl)-5-phenoxybenzamide]
1.3 nM	Cc1ccncc1-c1cc(Cn2ccnc2)cc(C(=O)NCc2ccc(Cl)c(Cl)c2)c1 [Example 121, 3-((1H-imidazol-1-yl)methyl)-N-(3,4-dichlorobenzyl)-5-(4-methylpyridin-3-yl)benzamide]
8.7 nM	Cc1cc(-c2cc(Cn3ccnc3)cc(C(=O)NCc3ccc(Cl)c(Cl)c3)c2)ccn1 [Example 123, 3-((1H-Imidazol-1-yl)methyl)-N-(3,4-dichlorobenzyl)-5-(2-methylpyridin-4-yl)benzamide]
2.2 nM	COc1cncc(-c2cc(Cn3ccnc3)cc(C(=O)NCc3ccc(Cl)c(Cl)c3)c2)c1 [Example 128, 3-((1H-Imidazol-1-yl)methyl)-N-(3,4-dichlorobenzyl)-5-(5-methoxypyridin-3-yl)benzamide]
2.1 nM	COc1cc(CNC(=O)c2cc(Cn3ccnc3)cc(-c3ccoc3C)c2)cc(OC)c1 [Example 130, 3-((1H-Imidazol-1-yl)methyl)-N-(3,5-dimethoxybenzyl)-5-(2-methylfuran-3-yl)benzamide]
3.9 nM	Cc1nc(F)ccc1-c1cc(Cn2ccnc2)cc(C(=O)NC(C)C2CCCCC2)c1 (stereo not drawn) [Example 132, 3-((1H-Imidazol-1-yl)methyl)-N-(1-cyclohexylethyl)-5-(6-fluoro-2-methylpyridin-3-yl)benzamide]
> 10000 nM	O=C(NCc1ccc(Cl)c(Cl)c1)c1cc(Cn2ccnc2C(F)(F)F)cc(-c2ccc(F)cc2Cl)c1 [Example 135, 2′-Chloro-N-(3,4-dichlorobenzyl)-4′-fluoro-5-((2-(trifluoromethyl)-1H-imidazol-1-yl)methyl)-[1,1′-biphenyl]-3-carboxamide]
6.5 nM	O=C(NCc1ccc(Cl)c(Cl)c1)c1cc(Cn2ccnc2)cc(N2CCCC2)c1 [Example 136, 3-((1H-Imidazol-1-yl)methyl)-N-(3,4-dichlorobenzyl)-5-(pyrrolidin-1-yl)benzamide]
8.6 nM	CC(C)(NC(=O)c1cc(Cn2ccnc2)cc(-c2ccc(F)cc2Cl)n1)C1CC1 [Example 149, 4-((1H-imidazol-1-yl)methyl)-6-(2-chloro-4-fluorophenyl)-N-(2-cyclopropylpropan-2-yl)picolinamide]
13.1 nM	CCC(NC(=O)c1cc(Cn2ccnc2)cc(-c2ccc(F)cc2Cl)n1)C1CC1 (stereo not drawn) [Example 152, 4-((1H-Imidazol-1-yl)methyl)-6-(2-chloro-4-fluorophenyl)-N-(1-cyclopropylpropyl)picolinamide]
4.8 nM	Cc1cc(C)cc(CNC(=O)c2cc(Cn3ccnc3)cc(-c3ccc(F)cc3Cl)n2)c1 [Example 153, 4-((1H-Imidazol-1-yl)methyl)-6-(2-chloro-4-fluorophenyl)-N-(3,5-dimethylbenzyl)picolinamide]
5.1 nM	COc1cc(OC)cc(C(C)NC(=O)c2cc(Cn3ccnc3)cc(-c3ccc(F)cc3Cl)n2)c1 (stereo not drawn) [Example 154, 4-((1H-Imidazol-1-yl)methyl)-6-(2-chloro-4-fluorophenyl)-N-(1-(3,5-dimethoxyphenyl)ethyl)picolinamide]

Same assay, conditions: Table B2, WDR5 WIN-site binding affinity; values not less than 1 nM (FPA)

Ki	Compound
400 nM	CC(C)N(Cc1cccc(Cl)c1)C(=O)c1cccc(CNC2=NCCN2)c1 [Example B2]
209 nM	O=C(NCc1ccc(Cl)c(Cl)c1)c1cccc(CNC2=NCCN2)c1 [Example B3]
11.9 nM	Cc1cc(CNC(=O)c2cccc(CNC3=NCCN3)c2)ccc1Cl [Example B4]
8.46 nM	Cc1cc(C)cc(CNC(=O)c2ccc(F)c(CNC3=NCCN3)c2)c1 [Example B7]

Compound	Ki
3-(((4,5-dihydro-1H-imidazol-2-yl)amino)methyl)-N-(3,5-dimethoxybenzyl)-4,5-difluorobenzamide [Example B30]	5.32 nM
O=C(NCc1cc(Cl)cc(Cl)c1)c1cccc(CNC2=NCCN2)c1 [Example B1, N-(3,5-dichlorobenzyl)-3-(((4,5-dihydro-1H-imidazol-2-yl)amino)methyl)benzamide]	18 nM
